Legend:
POLCO [1] = experiment: Post-emergence herbicidal action against POLCO; assay type: in vivo, Polygonum convolvulus; settings: dosage 20 g/ha
Experimental: Seeds of monocotyledonous and dicotyledonous weed and crop plants are laid out in sandy loam soil in wood-fiber pots, covered with soil and cultivated in a greenhouse under good growth conditions. 2 to 3 weeks after sowing, the test plants are treated at the one-leaf stage. The compounds of the invention, formulated in the form of wettable powders (WP) or as emulsion concentrates (EC), are then sprayed onto the green parts of the plants in the form of an aqueous suspension or emulsion at a water application rate equivalent to 600 to 800 l/ha, with addition of 0.2% wetting agent. After the test plants have been left to stand in the greenhouse under optimal growth conditions for about 3 weeks, the action of the preparations is assessed visually in comparison to untreated controls (herbicidal action in percent (%): 100% activity=the plants have died, 0% activity=like control plants). […] The tables below illustrate, in an illustrative manner, the post-emergence herbicidal action of the compounds of the invention, the herbicidal activity being stated in percent.

VIOTR [2] = experiment: Post-emergence herbicidal action against VIOTR; assay type: in vivo, Viola tricolor
Procedure, shortened: (§1)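 Spray, one-leaf stage: WP or EC compound in water, 600–800 l/ha, 0.2% wetting agent. Plants held about 3 weeks in the greenhouse, then visually rated in percent of kill compared with untreated controls.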

VERPE [3] = experiment: Post-emergence herbicidal action against VERPE; assay type: in vivo, Veronica persica
Procedure, shortened: as §1

VIOTR [4] = experiment: Pre-emergence herbicidal action against VIOTR; assay type: in vivo, Viola tricolor
Procedure, shortened: (§2)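 Pre-emergence soil-surface spray of formulated compound (WP or EC; 600 to 800 l/ha; 0.2% wetting agent) over seeds sown in sandy loam. After 3 weeks under greenhouse conditions, damage is estimated visually in percent against untreated plants.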

PHBPU [5] = experiment: Post-emergence herbicidal action against PHBPU; assay type: in vivo, Pharbitis purpurea; settings: dosage 20 g/ha
Procedure, shortened: as §1

SETVI [6] = experiment: Pre-emergence herbicidal action against SETVI; assay type: in vivo, Setaria viridis
Procedure, shortened: as §2

SETVI [7] = experiment: Post-emergence herbicidal action against SETVI; assay type: in vivo, Setaria viridis; settings: Setaria viridis, 504 h, dosage 20 g/ha
Procedure, shortened: as §1

MATIN [8] = experiment: Pre-emergence herbicidal action against MATIN; assay type: in vivo, Matricaria inodora
Procedure, shortened: as §2

ECHCG [9] = experiment: Pre-emergence herbicidal action against ECHCG; assay type: in vivo, Echinochloa crus-galli
Procedure, shortened: as §2

ABUTH [10] = experiment: Pre-emergence herbicidal action against ABUTH; assay type: in vivo, Abutilon theophrasti
Procedure, shortened: as §2

POLCO [11] = experiment: Pre-emergence herbicidal action against POLCO; assay type: in vivo, Polygonum convolvulus; settings: dosage 80 g/ha
Procedure, shortened: as §2

MATIN [12] = experiment: Post-emergence herbicidal action against MATIN; assay type: in vivo, Matricaria inodora
Procedure, shortened: as §1

AMARE = experiment: Pre-emergence herbicidal action against AMARE; assay type: in vivo, Amaranthus retroflexus
Procedure, shortened: as §2

ABUTH [13] = experiment: Post-emergence herbicidal action against ABUTH; assay type: in vivo, Abutilon theophrasti; settings: Abutilon theophrasti, 504 h, visual assessment about 3 weeks after treatment vs untreated controls
Procedure, shortened: as §1

VERPE [14] = experiment: Pre-emergence herbicidal action against VERPE; assay type: in vivo, Veronica persica
Procedure, shortened: as §2

PHBPU [15] = experiment: Pre-emergence herbicidal action against PHBPU; assay type: in vivo, Pharbitis purpurea; settings: dosage 80 g/ha
Procedure, shortened: as §2

DIGSA = experiment: Pre-emergence herbicidal action against DIGSA; assay type: in vivo, Digitaria sanguinalis
Procedure, shortened: as §2

ECHCG [16] = experiment: Post-emergence herbicidal action against ECHCG; assay type: in vivo, Echinochloa crus-galli
Procedure, shortened: as §1

ALOMY [17] = experiment: Pre-emergence herbicidal action against ALOMY; assay type: in vivo, Alopecurus myosuroides; settings: 80 g/ha, pre-emergence, scored visually after 3 weeks vs untreated controls (100% = plants have died, 0% = like control plants)
Procedure, shortened: as §2

AVEFA = experiment: Pre-emergence herbicidal action against AVEFA; assay type: in vivo, Avena fatua; settings: 80 g/ha, pre-emergence
Procedure, shortened: as §2

ALOMY [18] = experiment: Post-emergence herbicidal action against ALOMY; assay type: in vivo, Alopecurus myosuroides; settings: dosage 20 g/ha, visual assessment about 3 weeks after treatment vs untreated controls
Procedure, shortened: as §1

[19] = Tripleurospermum inodorum, 504 h, dosage 20 g/ha
[20] = 80 g/ha, scored visually after 3 weeks vs untreated controls (100% = plants have died, 0% = like control plants)

In the case of COc1c(C(=O)Nc2nnnn2C)ccc(C(F)F)c1C(=O)NC1CC1 [Example 1-74], the pest or weed control at 20 g/ha (POLCO [1]; Fallopia convolvulus, 504 h) is reported as 80%, the pest or weed control at 5 g/ha (VIOTR [2]; Viola tricolor, 504 h, 5 g/ha) is reported as 80% and the pest or weed control at 20 g/ha (VIOTR [2]; Viola tricolor, 504 h, 20 g/ha) is reported as 90%. For the same molecule, the pest or weed control at 5 g/ha (VERPE [3]; Veronica persica, 504 h, 5 g/ha) was 80%, the pest or weed control at 20 g/ha (VERPE [3]; Veronica persica, 504 h, 20 g/ha) was 90% and the pest or weed control at 20 g/ha (VIOTR [4]; Viola tricolor, 504 h, dosage 20 g/ha) was 100%. For the same molecule, the pest or weed control at 80 g/ha (VIOTR [4]; Viola tricolor, 504 h, dosage 80 g/ha) was 100%, the pest or weed control at 20 g/ha (PHBPU [5]; Ipomoea purpurea, 504 h) was 90% and the pest or weed control at 20 g/ha (SETVI [6]; Setaria viridis, 504 h, dosage 20 g/ha) was 100%. It also gave a pest or weed control at 80 g/ha (SETVI [6]; Setaria viridis, 504 h, dosage 80 g/ha) of 100%, a pest or weed control at 20 g/ha (SETVI [7]) of 100% and a pest or weed control at 20 g/ha (MATIN [8]; [19]) of 100%. For the same molecule, the pest or weed control at 80 g/ha (MATIN [8]; Tripleurospermum inodorum, 504 h, dosage 80 g/ha) was 100%, the pest or weed control at 80 g/ha (ECHCG [9]; Echinochloa crus-galli, 504 h, 80 g/ha) was 100% and the pest or weed control at 80 g/ha (ABUTH [10]; Abutilon theophrasti, 504 h, 80 g/ha, scored visually after 3 weeks vs untreated controls (100% = plants have died, 0% = like control plants)) was 100%. For the same molecule, the pest or weed control at 20 g/ha (ABUTH [10]; Abutilon theophrasti, 504 h, dosage 20 g/ha, scored visually after 3 weeks vs untreated controls, 100% = plants have died, 0% = like control plants, read-out: Pre-emergence action against ABUTH (herbicidal activity in percent)) was 100%, the pest or weed control at 80 g/ha (POLCO [11]; Fallopia convolvulus, 504 h) was 80% and the pest or weed control at 5 g/ha (MATIN [12]; Tripleurospermum inodorum, 504 h, dosage 5 g/ha) was 80%. It also gave a pest or weed control at 20 g/ha (MATIN [12]; [19]) of 90%, a pest or weed control at 20 g/ha (AMARE; Amaranthus retroflexus, 504 h, 20 g/ha, scored visually after 3 weeks vs untreated controls, 100% = plants have died, 0% = like control plants) of 100% and a pest or weed control at 80 g/ha (AMARE; Amaranthus retroflexus, 504 h, 80 g/ha, scored visually after 3 weeks vs untreated controls, 100% = plants have died, 0% = like control plants) of 100%. The pest or weed control at 5 g/ha (ABUTH [13]; dosage 5 g/ha) was 80%, the pest or weed control at 20 g/ha (ABUTH [13]; dosage 20 g/ha) was 80% and the pest or weed control at 80 g/ha (VERPE [14]; Veronica persica, 504 h, dosage 80 g/ha) was 100%. The pest or weed control at 80 g/ha (PHBPU [15]; Ipomoea purpurea, 504 h) was 100%, the pest or weed control at 20 g/ha (DIGSA; Digitaria sanguinalis, 504 h, dosage 20 g/ha) was 100% and the pest or weed control at 80 g/ha (DIGSA; Digitaria sanguinalis, 504 h, dosage 80 g/ha) was 100%. The pest or weed control at 5 g/ha (ECHCG [16]; Echinochloa crus-galli, 504 h, dosage 5 g/ha) was 80%, the pest or weed control at 20 g/ha (ECHCG [16]; Echinochloa crus-galli, 504 h, dosage 20 g/ha) was 80% and the pest or weed control at 80 g/ha (ALOMY [17]; Alopecurus myosuroides, 504 h) was 90%.

In the case of CC(NC(=O)c1c(Br)ccc(C(=O)Nc2nnnn2C)c1Cl)C1CC1 (centres unmarked) [Example 1-183], the “Post-emergence action against POLCO in %” value (POLCO [1]) is reported as 100%, the “Post-emergence action against VIOTR in %” value (VIOTR [2]; 5 g/ha) is reported as 90% and the “Post-emergence action against VIOTR in %” value (VIOTR [2]; 20 g/ha) is reported as 90%. For the same molecule, the “Post-emergence action against VERPE in %” value (VERPE [3]; 5 g/ha) was 80%, the “Post-emergence action against VERPE in %” value (VERPE [3]; 20 g/ha) was 90% and the “Pre-emergence action against VIOTR in %” value (VIOTR [4]; dosage 20 g/ha) was 100%. The “Pre-emergence action against VIOTR in %” value (VIOTR [4]; dosage 80 g/ha) was 100%, the “Post-emergence action against PHBPU in %” value (PHBPU [5]) was 80% and the “Pre-emergence action against AVEFA in %” value (AVEFA) was 90%. The “Pre-emergence action against SETVI in %” value (SETVI [6]; dosage 80 g/ha) was 100%, the “Pre-emergence action against MATIN in %” value (MATIN [8]; dosage 20 g/ha) was 90% and the “Pre-emergence action against MATIN in %” value (MATIN [8]; dosage 80 g/ha) was 100%. For the same molecule, the “Pre-emergence action against ECHCG in %” value (ECHCG [9]; 20 g/ha) was 90%, the “Pre-emergence action against ECHCG in %” value (ECHCG [9]; 80 g/ha) was 100% and the “Post-emergence action against ALOMY in %” value (ALOMY [18]) was 90%. The “Pre-emergence action against ABUTH (herbicidal activity)” value (ABUTH [10]; [20]) was 100%, the “Pre-emergence action against ABUTH (herbicidal activity in percent)” value (ABUTH [10]; dosage 20 g/ha, scored visually after 3 weeks vs untreated controls, 100% = plants have died, 0% = like control plants) was 100% and the “Pre-emergence action against POLCO in %” value (POLCO [11]) was 80%. For the same molecule, the “Post-emergence action against MATIN in %” value (MATIN [12]; dosage 5 g/ha) was 90%, the “Post-emergence action against MATIN in %” value (MATIN [12]; dosage 20 g/ha) was 90% and the “Pre-emergence action against AMARE in %” value (AMARE; 20 g/ha, scored visually after 3 weeks vs untreated controls, 100% = plants have died, 0% = like control plants) was 100%. The “Pre-emergence action against AMARE in %” value (AMARE; [20]) was 100%, the “Pre-emergence action against VERPE in %” value (VERPE [14]; dosage 20 g/ha) was 90% and the “Pre-emergence action against VERPE in %” value (VERPE [14]; dosage 80 g/ha) was 100%. The “Pre-emergence action against PHBPU in %” value (PHBPU [15]) was 90%, the “Pre-emergence action against DIGSA in %” value (DIGSA; dosage 20 g/ha) was 100% and the “Pre-emergence action against DIGSA in %” value (DIGSA; dosage 80 g/ha) was 100%. The “Post-emergence action against ECHCG in %” value (ECHCG [16]; dosage 20 g/ha) was 100% and the “Pre-emergence action against ALOMY (herbicidal activity)” value (ALOMY [17]) was 90%.

Reference: patent US12655116B2, “Substituted isophthalic acid diamides” (Bayer Aktiengesellschaft, priority 2020, dated 2026)
